“Also recorded” adds a separate entry of the source.

Experiment [1] relates to bleomycin hydrolase. The experiment is described as follows: Screening for bleomycin hydrolase production promoting effects (RT-PCR, cultured human keratinocytes). It is filed as cell-based. The following applies: for expression of bleomycin hydrolase in comparison with the control: 50 μg/ml, human keratinocytes, 24 hours, control 0.1% 1,3-butylene glycol, FIG. 24; for production of bleomycin hydrolase, concentration dependence: general statement in description. The protocol:
Human keratinocytes derived from normal foreskin (Cascade Biologics Inc., Portland, Md.) were cultured for 24 hours at […] in the presence of each of the herbal medicine extracts or pharmaceutical agents ([…] to 50 μg/ml) shown in FIG. 24 in keratinocyte growth medium consisting of MCDB medium supplemented with epidermal growth factor (0.1 ng/ml), insulin (10 μg/ml), hydrocortisone (0.5 μg/ml), bovine pituitary extract (0.4%), gentamycin (50 μg/ml) and amphotericin B (50 ng/ml). 0.1% 1,3-butylene glycol was used as a control.
Total RNA (500 ng) isolated from the human keratinocytes cultured in the manner described above was reverse-transcribed using random hexamers and Superscript II RNase H-transcriptase (Gibco-BRL Corp., Gaithersburg, Md.), followed by subjecting to PCR amplification using Taq DNA polymerase (Takara Corp., Kyoto, Japan) and the following primers. 40 amplification cycles were carried out consisting of 30 seconds at 94° C., 1 minute at 60° C. and 1 minute at 72° C.
The primers used in PCR are indicated below.

In experiment [2] the test system is bleomycin hydrolase. The experiment is described as follows: Effect of cytokines on bleomycin hydrolase mRNA expression, quantitative PCR (Experiment 5, FIG. 14). The following applies: keratinocytes in the proliferation stage, 24 hours, IL-4 and TNFα 0.1-10 ng/ml, IFNγ 1.0-100 ng/ml. It is filed as cell-based, human. As to the method:
(§1) Normal human epidermal keratinocytes derived from neonatal epidermis (Kurabo Industries, Ltd., Osaka, Japan) were cultured in EpiLife medium (Cascade Biologics, Inc., Portland, Oreg.) containing low-concentration (0.03 mM) calcium and HKGS Growth Supplement (Cascade Biologics, Inc.). All cells were incubated at 37° C. in the presence of 5% CO2 and were used within 4 passages of subculturing. Cells were collected at 70% confluence, 100% confluence, 2 days after reaching confluence, and 2 days after reaching confluence in 2 mM calcium.
The expression level of bleomycin hydrolase in keratinocytes was measured by quantitative PCR according to the following method using Light Cycler 480 (Roche Diagnostics GmbH, Mannheim, Germany). Light Cycler FastStart DNA Master CYBR Green I was used for the reagent. 0.6 μl aliquots of each of the following bleomycin hydrolase primers and 6.8 μl of water were added to 10 μl of SYBR Green I Master Mix followed by bringing to a total volume of 20 μl and carrying out PCR for 45 cycles consisting of 15 seconds at 95° C., 20 seconds at 55° C. and 20 seconds at 72° C. The results obtained were corrected by comparing with the results for a housekeeping gene, G3PDH.
IL-4 (final concentration: 0.1, 1.0 or 10 ng/ml), TNFα (final concentration: 0.1, 1.0 or 10 ng/ml) and IFNγ (final concentration: 1.0, 10 or 100 ng/ml) were respectively added to cultured keratinocytes in the proliferation stage, and after incubating for 24 hours, RNA was collected using Isogen. Expression of bleomycin hydrolase mRNA was measured by quantitative PCR. Based on the results shown in FIG. 14, a type of cytokine, interleukin-4 (IL-4) can be understood to down-regulate expression of bleomycin hydrolase.

A further experiment has as its system BH gene. The experiment is described as follows: Cytokine-mediated regulation of BH gene expression, real-time RT-PCR (Experiment 6, FIG. 20A). The format is cell-based, human. The conditions noted are these: proliferating keratinocytes, 24 hours of incubation. The protocol: as §1
(§2) Transcription levels of BH and related factors were analyzed by quantitative real-time RT-PCR. Total RNA was extracted from cultured cells using Isogen (Nippon Gene Co., Ltd., Tokyo, Japan) in accordance with the instructions provided by the manufacturer. Reverse transcription of cDNA was carried out using SuperScript™ II (Invitrogen Corp., Carlsbad, Calif.). Real-time RT-PCR was carried out with the Light Cycler Raid Cycler System using the Light Cycler 480 SYBR Green I Master Mix (Roche Diagnostics GmbH) in accordance with the instructions provided by the manufacturer. Glyceraldehyde 3-phosphate dehydrogenase (GAPDH) was used as a housekeeping gene. Specificity of the amplified fragments was confirmed by quantitative analysis of melting curves by Light Cycler analytical software. The amounts of mRNA were standardized with respect to GAPDH mRNA, and finally indicated as a ratio to the mRNA of an untreated control.
Since BH is an NMF-producing enzyme, it has the possibility of being involved in the pathophysiology of AD. Accordingly, an investigation was conducted of the effects of Th1, Th2 and Th17 cytokines on BH gene expression. […] Similar results were obtained with differentiated keratinocytes (data not shown). In order to clarify the role of IFN-γ in the regulation of BH gene expression, a promoter assay was carried out to identify cytokine response elements. […] IFN-γ no longer suppressed promoter activity after this sequence was deleted (FIG. 20B). […]

A further experiment concerns BH promoter. The experiment is described as follows: BH promoter luciferase assay in transfected cultured keratinocytes (FIG. 20B). The conditions noted are these: keratinocytes transfected with pGL3-BH-616 containing IRF-1/2 binding sites, 24 hours. It is filed as cell-based, human. The protocol: Keratinocytes were cultured in a 12-well tissue culture plate at a density of 5×10^4 cells/well followed by transfection with 1 μg aliquots of each construct using FuGene HD Transfection Reagent (Roche Diagnostics AG, Basel, Switzerland). In order to correct for transfection efficiency, all cells were simultaneously transfected with pGL4.74 [hRluc-TK] vector (Promega Co.) containing sea pansy (Renilla) luciferase gene under the control of HSV-TK promoter. Unless specifically indicated otherwise, the cells were collected 24 hours after transfection and lysed using […] of Passive Lysis Buffer (Promega Co.) per well. Luciferase activity was analyzed using the Dual Luciferase Reporter Assay System (Promega Co.) and Auto Lumat Plus Luminoeter (Berthold Technologies GmbH, Bad Wilbad, Germany). Firefly luciferase activity was standardized for sea pansy luciferase activity. Three transfections were independently carried out for each construct and results were expressed as the mean value thereof.
Since BH is an NMF-producing enzyme, it has the possibility of being involved in the pathophysiology of AD. Accordingly, an investigation was conducted of the effects of Th1, Th2 and Th17 cytokines on BH gene expression. […] Similar results were obtained with differentiated keratinocytes (data not shown). […]

Another experiment relates to IRF-1. The experiment is described as follows: Effect of cytokines on IRF-1 mRNA expression in cultured keratinocytes (FIG. 22). The format is cell-based, human. As to the method:
as §2
(§3) An investigation was conducted of the cytokine-dependent regulation of these transcription factors.

Another experiment relates to IRF-2. The experiment is described as follows: Effect of cytokines on IRF-2 mRNA expression in cultured keratinocytes (FIG. 22). The format is cell-based, human. As to the method: as §2, §3
Another experiment concerns MZF-1. The experiment is described as follows: Effect of cytokines on MZF-1 expression in cultured keratinocytes (FIG. 22). The format is cell-based, human. The conditions noted are these: most effective at IL-4 10 ng/ml. As to the method:
as §2, §3

A further experiment deals with Sp-1. The experiment is described as follows: Effect of cytokines on Sp-1 expression in cultured keratinocytes (FIG. 22). The format is cell-based, human. The following applies: most effective at IL-4 10 ng/ml. As to the method:
as §2, §3

Where [3] appears, read: only at IL-4 100 ng/ml, FIG. 22B.

Regarding `OC[C@@H](O)[C@@H](O)CO` [erythritol], in the experiment with bleomycin hydrolase [1], the “expression of bleomycin hydrolase in comparison with the control” value is “significantly increase” and the “production of bleomycin hydrolase, concentration dependence” value was “concentration-dependently promotes production”.
Regarding “IFN-γ: Th1 cytokine, human IFN-γ purchased from Peprotech EC”, the “expression of bleomycin hydrolase mRNA” value in the experiment on bleomycin hydrolase [2] is “significantly increases”. Further, the “BH mRNA expression” value in the experiment on BH gene is reported as “dose-dependent down-regulation; also recorded: remarkably suppressed; also recorded: significantly decreases”. Also, in the experiment on BH promoter, the “BH promoter activity (luciferase)” value was “down-regulated”. For the same compound, in the experiment on IRF-1 (IFN-γ treatment, FIG. 22A), the “IRF-1 mRNA expression” value is recorded as “potent dose-dependent up-regulation”. For the same compound, the IRF-2 expression result in the experiment with IRF-2 (IFN-γ treatment, FIG. 22A) is given as “up-regulated”.
For the compound TNFα, the “expression of bleomycin hydrolase mRNA” value with bleomycin hydrolase [2] is reported as “significantly increases”.
On to “IL-13: Th2 cytokine, human IL-13 manufactured by R&D Systems Inc.”, for which, in the experiment with BH gene, the “BH mRNA expression” value is “did not demonstrate any direct action whatsoever”.
For the compound “IL-4: Th2 cytokine, human IL-4 purchased from Peprotech EC”, the “expression of bleomycin hydrolase mRNA” value with bleomycin hydrolase [2] is given as “down-regulates”. Besides, the “BH mRNA expression” value in the experiment with BH gene was “did not demonstrate any direct action whatsoever”. For the same compound, in the experiment with IRF-1 (setting [3]), the “expression of IRF-1” value was “significantly amplified”. Also, the “expression of IRF-2” value with IRF-2 (setting [3]) is on record as “significantly amplified”. In addition, the “expression of MZF-1” value in the experiment on MZF-1 is “down-regulated most effectively; also recorded: down-regulated”. Further, the “expression of Sp-1” value in the experiment on Sp-1 is listed as “down-regulated most effectively; also recorded: down-regulated”.
On to `O=C(O)CCCNS(=O)(=O)c1ccccc1` [benzenesulfonyl GABA, benzenesulfonyl γ-aminobutyric acid], for which, in the experiment on bleomycin hydrolase [1], the “expression of bleomycin hydrolase in comparison with the control” value is “significantly increase” and the “production of bleomycin hydrolase, concentration dependence” value is given as “concentration-dependently promotes production”.

Values taken from patent publication US20140010901A1, “BLEOMYCIN HYDROLASE PRODUCTION PROMOTOR” (Shiseido Company, Ltd., priority 2011, published 2014).
